Laboratory results reported in patent publication US11655241B2, “Heterocyclic compound and use thereof” (Takeda Pharmaceutical Company Limited, priority 2018, dated 2023).

Each compound was assayed against T1, human orexin type 2 receptor (Homo sapiens, UniProt O43614) (assay: Measurement of orexin type 2 receptor agonist activity (calcium fluorescence, Fluo-4 AM, FDSS)). Conditions: compound at 3 μM; CHO cells forcibly expressing human OX2 receptor; DMSO = 0%, orexin A (human) 10 nM = 100%.
T1 construct: expressed in transfected cells
T1 sequence (O43614 1-444): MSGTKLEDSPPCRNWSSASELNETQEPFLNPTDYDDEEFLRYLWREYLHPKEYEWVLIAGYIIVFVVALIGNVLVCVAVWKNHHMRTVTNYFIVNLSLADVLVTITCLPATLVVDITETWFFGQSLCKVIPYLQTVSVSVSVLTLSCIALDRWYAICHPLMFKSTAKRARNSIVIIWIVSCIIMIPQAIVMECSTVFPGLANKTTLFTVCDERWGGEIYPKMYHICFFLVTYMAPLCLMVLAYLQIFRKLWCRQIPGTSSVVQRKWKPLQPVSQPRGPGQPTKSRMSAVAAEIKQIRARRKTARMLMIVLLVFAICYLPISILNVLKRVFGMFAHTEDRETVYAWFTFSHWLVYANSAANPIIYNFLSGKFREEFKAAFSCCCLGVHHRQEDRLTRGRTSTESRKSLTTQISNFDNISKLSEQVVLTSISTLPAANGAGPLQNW
Type: cell-based
Description: Experimental Example 1: Obtainment of Cell Stably Expressing Human Orexin Type 2 Receptor (hOX2R)
To obtain a cell clone stably expressing human orexin type 2 receptor, human orexin type 2 receptor cDNA was inserted into pcDNA3.1(+) plasmid vector (Invitrogen), and a plasmid DNA for expression of human orexin type 2 receptor (pcDNA3.1(+)/hOX2R) was cloned. The plasmid DNA was introduced into CHO-dhfr cell by an electroporation method, and human orexin type 2 receptor expressing clone cells were obtained by limiting dilution method by using G418 drug resistance as a selection marker.
Experimental Example 2: Measurement of Orexin Type 2 Receptor Agonist Activity
CHO cells forcibly expressing human OX2 receptor were seeded in each well of 384 well black transparent bottom plate (BD Falcon) at 7,500 cells/well, and cultured for one day in a 5% CO2 incubator at 37° C. After removal of the medium in the cell plate, assay buffer A containing a calcium indicator (HBSS (Thermo Fisher Scientific), 20 mM HEPES (Thermo Fisher Scientific), 0.1% BSA (Wako Pure Chemical Industries, Ltd. or Sigma-Aldrich), 2.5 μg/mL Fluo-4 AM (DOJINDO Chemical), 0.08% Pluronic F127 (DOJINDO Chemical), 1.25 mM probenecid (DOJINDO Chemical)) was added at 30 μL/well. The plate was stood for 30 min in a 5% CO2 incubator at 37° C., and further stood at room temperature for 30 min. A test compound prepared by diluting with assay buffer B (HBSS, 20 mM HEPES, 0.1% BSA) was added at 10 μL/well, and the fluorescence value was measured by FDSSμCELL (Hamamatsu Photonics K.K.) every one sec for 1 min, and thereafter every two sec for 1 min 40 sec. The activity (%) of the test compound was calculated assuming that variation in the fluorescence value when DMSO was added instead of the test compound was 0%, and variation in the fluorescence value when orexin A (human) (PEPTIDE INSTITUTE, INC.) was added at the final concentration of 10 nM was 100%. The activity of each compound at the concentration of 3 μM was shown below.

SMILES | OX2R agonist activity (3 μM, %)
COC(=O)N[C@H]1CCN(C(=O)C2CCC2)[C@H]1Cc1cccc(-c2cccc(F)c2)c1 (relative stereo) [Example 1, methyl{cis-1-(cyclobutanecarbonyl)-2-[(3′-fluoro[1,1′-biphenyl]-3-yl)methyl]pyrrolidin-3-yl}carbamate] | 33%
O=C(N[C@H]1CCN(C(=O)C2CCC2)[C@H]1Cc1cccc(-c2cccc(F)c2)c1)C1CCCO1 (relative stereo) [Example 5, N-{cis-1-(cyclobutanecarbonyl)-2-[(3′-fluoro[1,1′-biphenyl]-3-yl)methyl]pyrrolidin-3-yl}oxolane-2-carboxamide] | 92%
O=C(CO)N[C@H]1CCN(C(=O)C2CCC2)[C@H]1Cc1cccc(-c2cccc(F)c2)c1 (relative stereo) [Example 6, N-{cis-1-(cyclobutanecarbonyl)-2-[(3′-fluoro[1,1′-biphenyl]-3-yl)methyl]pyrrolidin-3-yl}-2-hydroxyacetamide] | 60%
CC(F)(F)C(=O)N[C@H]1CCN(C(=O)C2CCC2)[C@H]1Cc1cccc(-c2cccc(F)c2)c1 (relative stereo) [Example 8, N-{cis-1-(cyclobutanecarbonyl)-2-[(3′-fluoro [1,1′-biphenyl]-3-yl)methyl]pyrrolidin-3-yl}-2,2-difluoropropanamide] | 66%
O=C(C1CCC1)N1CC[C@H](NC(=O)C2(F)CCC2)[C@@H]1Cc1cccc(-c2cccc(F)c2)c1 (relative stereo) [Example 10, N-{cis-1-(cyclobutanecarbonyl)-2-[(3′-fluoro[1,1′-biphenyl]-3-yl)methyl]pyrrolidin-3-yl}-1-fluorocyclobutane-1-carboxamide] | 79%
COC1(C(=O)N[C@H]2CCN(C(=O)C3CCC3)[C@H]2Cc2cccc(-c3cccc(F)c3)c2)CC1 (relative stereo) [Example 11, N-{cis-1-(cyclobutanecarbonyl)-2-[(3′-fluoro[1,1′-biphenyl]-3-yl)methyl]pyrrolidin-3-yl}-1-methoxycyclopropane-1-carboxamide] | 93%
O=C(NC1CCN(C(=O)C2CCC2)C1Cc1cccc(-c2cccc(F)c2)c1)[C@@H]1CCCO1 (stereo in doubt) [Example 16, (2S)-N-{cis-1-(cyclobutanecarbonyl)-2-[(3′-fluoro[1,1′-biphenyl]-3-yl)methyl]pyrrolidin-3-yl}oxolane-2-carboxamide] | 90%
CN(C)C(=O)C(=O)NC1CCN(C(=O)C2CCC2)C1Cc1cccc(-c2cccc(F)c2)c1 (stereo not drawn) [Example 4, N^~2^~-{cis-1-(cyclobutanecarbonyl)-2-[(3′-fluoro[1,1′-biphenyl]-3-yl)methyl]pyrrolidin-3-yl}-N^~1^~,N^~1^~- dimethylethanediamide] | 95%
CN(C)C(=O)C(=O)N[C@H]1CCN(C(=O)N2CCC2)[C@H]1Cc1csc(-c2cccc(F)c2)n1 [Example 19, N^~2^~-[(2S,3S)-1-(azetidine-1-carbonyl)-2-{[2-(3-fluorophenyl)-1,3-thiazol-4-yl]methyl}pyrrolidin-3-yl]-N^~1,N^~1^~- dimethylethanediamide] | 89%
CN(C)C(=O)C(=O)N[C@H]1CCN(C(=O)C2CCC2)[C@H]1Cc1csc(-c2cccc(F)c2)n1 [Example 20, N^~2^~-[(2S,3S)-1-(cyclobutanecarbonyl)-2-{[2-(3-fluorophenyl)-1,3-thiazol-4-yl]methyl}pyrrolidin-3-yl]-N^~1,N^~1^~- dimethylethanediamide] | 82%
O=C(N[C@H]1CCN(C(=O)N2CCC2)[C@H]1Cc1cccc(-c2cccc(F)c2)n1)[C@@H]1CCCO1 [Example 21, (2S)-N-[(2S,3S)-1-(azetidine-1-carbonyl)-2-{[6-(3-fluorophenyl)pyridin-2-yl]methyl]pyrrolidin-3-yl]oxolane-2-carboxamide] | 59%
